Experimental data taken from US20070003531A1, “Methods for improving immunotherapy by enhancing survival of antigen-specific cytotoxic T lymphocytes” (University of Connecticut, priority 2005, published 2007).

Experiments:
[1] = tested on: MART-127-35 epitope specific human primary CTL; assay: AICD induction and quantitation in epitope specific primary CTL (tetramer/annexin V FACS); type: cell-based; settings: pre-incubation about 45 min, restimulation with MART-127-35 peptide pulsed T2 cells, kinase inhibitors 25 μM, z-VAD-fmk 100 μM, Fc chimeras 10 μg/ml
Experimental: FIG. 10. Effect of external death receptor blockade and MAP kinase inhibitors on AICD in the epitope specific CTLs upon secondary encounter of the cognate epitope. The CTLs were pre-incubated at optimal concentration for about 45 min. at about 37° C. with pan caspase inhibitor z-VAD-fmk (100 μM); human Fas/Fc chimera, human TNF-RI/Fc chimera, human TRAIL-RI/Fc chimera, human TRAIL-RII/Fc chimera and human IFN-γ RI/Fc chimeric proteins (10 μg/ml); p38 kinase inhibitor SB203580, JNK inhibitor anthra[1,9-cd]pyrazol-6(2H)-one (SP600125), […] inhibitor PD98059 (25 μM). Then the pretreated as well as untreated CTLs were incubated with T2 cells either alone or loaded with peptide. About 4 hours after secondary exposure cells were stained for determining: (A) Number of tetramer^+ cells out of the CD8^+ T cells [Top panel]; number of tetramer^+/Annexin V^+ and tetramer^+/Annexin^− populations [Bottom panel]. […] (B) Effect of the MAP kinase inhibitors on IFN-γ response by the effector cells.
AICD induction and quantitation. AICD in the human primary CTL primed and expanded specifically for melanoma epitope MART-127-35 was induced by re-exposure of the CTLs to MART-127-35 peptide (1 μg/ml) as reported previously. Staurosporine mediated death was induced by exposure of CTL to 1 μM staurosporine for 4 hr. Quantitation of AICD and the effects of various inhibitors on AICD of CTLs, were carried out by annexin-V staining followed by FACS analyses as reported previously.
In test whether or not the epitope specific primary CTLs undergo AICD, the activated CTLs were exposed to peptide [1 μg/ml] loaded T2 cells (Effector: Target=100) at different time points of the cultures. Thereafter, the evidence of apoptosis was determined by flow cytometry with triple color staining (CD8, MART-127-35/HLA-A2 tetramer and annexin V) at different time points (4-18 h). Experiments were carried out in triplicate wells and significance was calculated by One-way analysis of variance (ANOVA) using Sigma Stat statistical software, Chicago, Ill.
To evaluate the effect of various agents in modulating AICD, the CTLs were pre-incubated with various compounds at optimal concentration for 45 min. at 37° C. and then exposed to T2 cells alone or loaded with peptide.

[2] = tested on: Bcl family proteins in CTL; assay: Western blot of Bcl family pro- and anti-apoptotic proteins in CTL after secondary stimulation; type: cell-based, human
Experimental: (§1) FIG. 12. Effect of antigen specific secondary stimulation on mitochondrial transmembrane membrane potential (Δψm), pro- and anti-apoptotic protein and expression of cell surface molecules. (A) Differential effect on membrane polarization in Mart-1 primary CTLs (top panel) vs. Jurkat T cells (bottom panel). CTLs were incubated with T2 cells either alone or loaded with peptide. After overnight secondary exposure cells were stained with Mart-1 tetramer/CD8 and DiOC6. Histogram represents the fluorescence of DiOC6 in the gated antigen specific tetramer^+ population (top panel). Jurkat T cells were also analyzed for modulation of membrane potential after TCR-driven stimulation (bottom panel). Values represent the mean±SD of fluorescence intensity triplicates from one out of three separate experiment. *p<0.001 (One Way ANOVA). […] (C) Expression of different cell surface receptors for survival or death signal in antigen specific population upon secondary stimulation. Values on left upper corner represent the geometric mean of the fluorescence intensity for that particular marker when stimulated with T2/MAGE-3271-279 while that on right upper corner represent the geometric mean of the fluorescence intensity when stimulated with T2/MART-127-35.
Washed cell pellets were lysed in RIPA buffer and a cytosolic fraction was prepared by spinning the lysate at 15,000 rpm. Proteins (20 μg/well) were separated on 15% SDS-PAGE, transferred onto nitrocellulose filters, probed with appropriate antibodies. Antibodies for Bcl-2, phospho Bcl-2, Bim, BCI-XL, Bax, Actin were purchased from Santa-Cruz Biotechnology, Santa-Cruz, Calif. Anti-Mcl-1 antibody was purchased from BD Pharmingen, Palo Alto, Calif. Blots were developed by HRP-tagged secondary antibody (Santa-Cruz Biotechnology, Santa-Cruz, Calif.) using a chemoluminescence kit (Amersham Biosciences, Buckinghamshire, U. K.).

Mart-1 primary CTLs = assay: Mitochondrial transmembrane potential (DiOC6 staining); type: cell-based, human; settings: induced by re-stimulation with cognate peptide; data not shown
Experimental: as §1

[3] = tested on: MART-127-35 epitope specific primary CTL; assay: DNA fragmentation analysis (agarose gel electrophoresis); type: cell-based, human; settings: 1 μM staurosporine for 4 hr
Experimental: Standard 2% agarose gel-electrophoresis (panel i) and pulse field DNA gel electrophoresis (panel ii) of: CTL in steady state (C) and after restimulation by the cognate peptide (M1).
DNA fragmentation analysis. DNA fragmentation was assessed by measuring single stranded nick generation, using single stranded DNA nick specific antibody (Alexis Biochemicals, CA, USA) with flow-cytometry and immunofluorescence according to published protocols. Antibody-stained cells were counterstained with 0.1 μg/ml DAPI in PBS for 10 min. Agarose gel electrophoresis was used to detect small oligosomal DNA fragmentation and pulse field electrophoresis (Bio-Rad CHEF-DRIII) was used (6 V/cm, 20-60 sec pulse overnight) to detect large-scale DNA fragmentation.

[4] = tested on: PARP cleavage in Jurkat cells; assay: PARP cleavage in staurosporine treated Jurkat cells (immunoblot); type: cell-based, human
Experimental: FIG. 1. […] (A) Effect of the JNK inhibitor SP600125 on AICD in the MART-127-35 epitope specific CTL. Histogram represents FACS analysis of the percent of MART-127-35 epitope specific CTLs that were tetramer positive and annexin negative after restimulation with MAGE-3271-279 control peptide (M3) pulsed T2 cells or MART-127-35 peptide (M1) pulsed T2 cells either alone or re-stimulated after pre-incubation with JNK inhibitor SP600125, p38-kinase inhibitor SB203580, ERK1/2 inhibitor PD98059 or caspase-inhibitor z-VAD-fink. MAGE-3271-279. (B) JNK activation results in phosphorylation of c-Jun during AICD in CTL that is blocked by SP600125. Immunoblots show analyses of CTL extracts probed with anti-phosphor-c-Jun, anti-c-Jun, and anti-actin antibodies. […] (i) Jurkat cells were treated with PMA+ionomycin in the absence or presence of SP600125 and JNK activation (c-Jun phosphorylation) was assessed with anti-phospho-c-Jun antibody. […] (ii) Jurkat cells were treated with Staurosporine for 1 and 4 hrs in the absence (S) or presence of caspase inhibitor, z-VAD-fmk (CI), JNK inhibitor, SP600125 (SP) or ERK1/2 inhibitor PD98059 (PD) and cleavage of PARP was detected by immunoblotting, using actin as a loading control. […] Percent annexin positive cells in all samples were quantified by FACS analysis and shown below the blot […]

Jurkat cells = assay: Staurosporine-induced death of Jurkat cells (annexin FACS); type: cell-based, human; settings: annexin positive cells by FACS
Experimental: FIG. 1. […] (A) Effect of the JNK inhibitor SP600125 on AICD in the MART-127-35 epitope specific CTL. Histogram represents FACS analysis of the percent of MART-127-35 epitope specific CTLs that were tetramer positive and annexin negative after restimulation with MAGE-3271-279 control peptide (M3) pulsed T2 cells or MART-127-35 peptide (M1) pulsed T2 cells either alone or re-stimulated after pre-incubation with JNK inhibitor SP600125, p38-kinase inhibitor SB203580, ERK1/2 inhibitor PD98059 or caspase-inhibitor z-VAD-fink. MAGE-3271-279. (B) JNK activation results in phosphorylation of c-Jun during AICD in CTL that is blocked by SP600125. Immunoblots show analyses of CTL extracts probed with anti-phosphor-c-Jun, anti-c-Jun, and anti-actin antibodies. […] (i) Jurkat cells were treated with PMA+ionomycin in the absence or presence of SP600125 and JNK activation (c-Jun phosphorylation) was assessed with anti-phospho-c-Jun antibody. […] (ii) Jurkat cells were treated with Staurosporine for 1 and 4 hrs in the absence (S) or presence of caspase inhibitor, z-VAD-fmk (CI), JNK inhibitor, SP600125 (SP) or ERK1/2 inhibitor PD98059 (PD) and cleavage of PARP was detected by immunoblotting, using actin as a loading control. […] Percent annexin positive cells in all samples were quantified by FACS analysis and shown below the blot

COc1cccc(-c2cc(=O)c3ccccc3o2)c1N [PD98059]
protection/rescue of CTL from AICD [1]: could not protect

C[S+]([O-])c1ccc(-c2nc(-c3ccncc3)c(-c3ccc(F)cc3)[nH]2)cc1 (centres unmarked) [SB203580]
BCI-XL expression [2]: non-selectively up regulated | Bcl-2 expression [2]: non-selectively up regulated | level of hyper polarization of mitochondrial transmembrane potential (Mart-1 primary CTLs): decreased | protection/rescue of CTL from AICD [1]: could not protect

CN[C@@H]1C[C@H]2O[C@@](C)([C@@H]1OC)n1c3ccccc3c3c4c(c5c6ccccc6n2c5c31)C(=O)NC4 [staurosporine]
oligosomal DNA fragmentation [3]: clearly evident | PARP cleavage ([4]; Jurkat cells treated with staurosporine (1 μM)): cleaved

z-VAD-fmk
protection from staurosporine-induced death (Jurkat cells): protected | effect on PARP cleavage induced by staurosporine ([4]; Jurkat cells, z-VAD-fmk 100 μM, staurosporine 1 μM): blocked | protection/rescue of CTL from AICD [1]: could not protect | protection/rescue of CTL from AICD ([1]; listed as z-VAD-fink): did not prevent
